Source: patent US20050282755A1, “Compositions having antimicrobial activity and uses thereof” (priority 2004, published 2005)
In brackets after ≈: the same amount, converted by molar mass. Like-named read-outs stand apart in the source and are kept apart here. Non-standard residues stand in square brackets, D forms with d. Residues, ends and D or L forms follow the SMILES beside them. *: point of attachment. Lauroyl = CCCCCCCCCCCC(=O)*; Decanoyl = CCCCCCCCCC(=O)*; Octanoyl = CCCCCCCC(=O)*

Columns and labels:
Type in all cases: cell-based
[1] = system: Propionibacterium acnes ATCC 6919
Procedure: A second method that was used to determine the MIC in P. acnes for selected antimicrobial agents was a non-standard broth microdilution method that used an assay buffer composed of reinforced Clostridial broth. Briefly, a log-phase bacterial culture of P. acnes was used to inoculate wells of a 96-well plate so that the final inoculum for each well contained 5×10^5 to 1×10^6 CFU/milliliter. […] Plates were incubated for 48-72 hours at 37° C. in a GasPak anaerobic chamber. The lowest concentration of peptide that contained no visible growth as evidenced by a lack of turbidity when compared to the control (no peptide) was determined as the MIC. MIC values that utilized this method of MIC determination are indicated in Table 9 with a subscript letter “d.”

[2] = system: Staphylococcus aureus ATCC 29213; assay: MIC, NCCLS M7-A6 broth microdilution, cation-adjusted Mueller Hinton broth (Table 9, no superscript); settings: ATCC 29213
Summary of the method: (§1)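 CAMHB microdilution; final inoculum 5×10^5–1×10^6 CFU/milliliter from log-phase culture; overnight, 37° C; MIC = lowest peptide conc. without visible growth (turbidity) vs no-peptide control.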

Salmonella dublin (Lane) = assay: MIC, NCCLS M7-A6 broth microdilution (Table 9, no superscript)
Summary of the method: as §1

[3] = system: Candida albicans ATCC 18804; assay: MIC in yeasts, NCCLS M27-A2 broth microdilution, RPMI 1640 (Table 9, letter e); settings: ATCC 18804
Summary of the method: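 Plates incubated 24 to 48 hours at 37° C, with yeast seeded at 0.5×10^3–2.5×10^3 CFU/milliliter final in RPMI 1640 (glutamine, phenol red indicator). MIC was read as the lowest peptide concentration showing no visible growth.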

[4] = system: Escherichia coli ATCC 25922; assay: MIC, NCCLS M7-A6 broth microdilution (Table 9, no superscript); settings: ATCC 25922
Summary of the method: as §1

[5] = system: Pseudomonas aeruginosa ATCC 27853; assay: as above; settings: ATCC 27853
Summary of the method: as §1

[6] = system: Staphylococcus epidermidis ATCC 12228; assay: as above; settings: ATCC 12228
Summary of the method: as §1

[7] = system: Propionibacterium acnes ATCC 6919; assay: MIC, agar dilution method NCCLS M11-A6, Brucella agar, anaerobic (Table 9, superscript c); settings: ATCC 6919
Summary of the method: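 MIC taken as the lowest peptide level giving no colonies on the plate. Plates were inoculated to 1.5×10^8 CFU/milliliter, then kept anaerobically at 37° C. for 48-96 hours; method follows NCCLS M11-A6.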

Row | MIC P. acnes [1] | MIC S. aureus [2] | MIC S. dublin (Salmonella dublin (Lane)) | MIC C. albicans [3] | MIC E. coli [4] | MIC P. aeruginosa [5] | MIC S. epidermidis [6] | MIC P. acnes [7] | SMILES
1 | 6 µg·days/mL | >64 µg/mL | >64 µg/mL |  |  |  |  |  | CSCC[C@@H](NC(=O)[C@@H](Cc1ccccc1)NC(=O)[C@@H](CC(N)=O)NC(=O)[C@@H](CCCNC(=N)N)NC(=O)[C@@H](CO)NC(=O)[C@@H](Cc1c[nH]c2ccccc12)NC(=O)[C@@H](CC(=O)O)NC(=O)[C@@H](CCCNC(=N)N)NC(=O)[C@@H](Cc1c[nH]c2ccccc12)NC(=O)[C@@H](CCCNC(=N)N)NC(=O)[C@@H](CO)NC(=O)[C@@H](CCCNC(=N)N)NC(=O)CNC(=O)[C@H](NC(=O)[C@@H](CCCNC(=N)N)NC(=O)[C@@H](CO)NC(=O)[C@H](NC(=O)[C@@H](CCCNC(=N)N)NC(=O)[C@H](NC(C)=O)[C@H](C)O)C(C)C)[C@H](C)O)C(=O)N[C@H](CCCNC(=N)N)C(=O)N[C@H](CCCCN)C(=O)N[C@H](CCCCN)C(=O)N[C@H](CCCCN)C(=O)N[C@H](CCCCN)C(=O)N[C@H](CCCCN)C(=O)N[C@H](CCCCN)C(=O)N[C@H](CCCCN)C(=O)N[C@H](CCCCN)C(N)=O [Peptide 34, Ac-trvsrtgrsrwrdwsrnfmrkkkkkkkk-NH2] (Ac-[dT][dR][dV][dS][dR][dT]G[dR][dS][dR][dW][dR][dD][dW][dS][dR][dN][dF][dM][dR][dK][dK][dK][dK][dK][dK][dK][dK]-NH2)
2 | 25 µg·days/mL | >64 µg/mL | >64 µg/mL | 16e ug/mL |  |  |  |  | CSCC[C@H](NC(=O)[C@H](Cc1ccccc1)NC(=O)[C@H](CC(N)=O)NC(=O)[C@H](CCCNC(=N)N)NC(=O)[C@H](C)NC(=O)[C@@H](NC(=O)[C@H](CC(=O)O)NC(=O)[C@H](CCCNC(=N)N)NC(=O)[C@H](Cc1c[nH]c2ccccc12)NC(=O)[C@H](CCCNC(=N)N)NC(=O)[C@H](CO)NC(=O)[C@H](CCCNC(=N)N)NC(=O)CNC(=O)[C@@H](NC(=O)[C@H](CCCNC(=N)N)NC(=O)[C@H](C)NC(=O)[C@@H](NC(=O)[C@H](CCCNC(=N)N)NC(=O)[C@@H](NC(C)=O)[C@@H](C)O)C(C)C)[C@@H](C)O)C(C)C)C(=O)N[C@@H](CCCNC(=N)N)C(N)=O [Peptide 38] (Ac-TRVARTGRSRWRDVARNFMR-NH2)
3 | 12.5 µg·days/mL | >64 µg/mL | >64 µg/mL |  |  |  |  |  | CC(=O)N[C@@H](C(=O)N[C@H](CCCNC(=N)N)C(=O)N[C@@H](C(=O)N[C@H](CO)C(=O)N[C@H](CCCNC(=N)N)C(=O)N[C@@H](C(=O)NCC(=O)N[C@H](CCCNC(=N)N)C(=O)N[C@H](CO)C(=O)N[C@H](CCCNC(=N)N)C(=O)N[C@H](Cc1c[nH]c2ccccc12)C(=O)N[C@H](CCCNC(=N)N)C(=O)N[C@H](CC(=O)O)C(=O)N[C@H](Cc1c[nH]c2ccccc12)C(=O)N[C@H](CO)C(=O)N[C@H](CCCNC(=N)N)C(=O)N[C@H](CC(N)=O)C(=O)N[C@H](Cc1ccccc1)C(=O)N[C@H](C)C(=O)N[C@H](CCCNC(=N)N)C(N)=O)[C@H](C)O)C(C)C)[C@H](C)O [Peptide 61, Ac-trvsrtgrsrwrdwsrnfar-NH2] (Ac-[dT][dR][dV][dS][dR][dT]G[dR][dS][dR][dW][dR][dD][dW][dS][dR][dN][dF][dA][dR]-NH2)
4 | 12.5 µg·days/mL | 4 µg/mL (≈ 1.5 µM) | 16 µg/mL (≈ 5.99 µM) | 16e ug/mL |  |  |  |  | CCCCCCCCCCCC(=O)N[C@H](C(=O)N[C@@H](CCCNC(=N)N)C(=O)N[C@H](C(=O)N[C@@H](C)C(=O)N[C@@H](CCCNC(=N)N)C(=O)N[C@H](C(=O)NCC(=O)N[C@@H](CCCNC(=N)N)C(=O)N[C@@H](CO)C(=O)N[C@@H](CCCNC(=N)N)C(=O)N[C@@H](Cc1c[nH]c2ccccc12)C(=O)N[C@@H](CCCNC(=N)N)C(=O)N[C@@H](CC(=O)O)C(=O)N[C@H](C(=O)N[C@@H](C)C(=O)N[C@@H](CCCNC(=N)N)C(=O)N[C@@H](CC(N)=O)C(=O)N[C@@H](Cc1ccccc1)C(=O)N[C@@H](CCSC)C(=O)N[C@@H](CCCNC(=N)N)C(N)=O)C(C)C)[C@@H](C)O)C(C)C)[C@@H](C)O [Peptide 69] (Lauroyl-TRVARTGRSRWRDVARNFMR-NH2)
5 |  | 16 µg/mL (≈ 7.86 µM) | 64 µg/mL (≈ 31.5 µM) | 64e ug/mL | 64 µg/mL (≈ 31.5 µM) | >64 µg/mL | 32 µg/mL (≈ 15.7 µM) | >64c ug/mL | CCCCCCCCCCCC(=O)N[C@H](CCCNC(=N)N)C(=O)N[C@H](CO)C(=O)N[C@H](CCCNC(=N)N)C(=O)N[C@H](Cc1c[nH]c2ccccc12)C(=O)N[C@H](CCCNC(=N)N)C(=O)N[C@H](CC(=O)O)C(=O)N[C@@H](C(=O)N[C@H](C)C(=O)N[C@H](CCCNC(=N)N)C(=O)N[C@H](CC(N)=O)C(=O)N[C@H](Cc1ccccc1)C(=O)N[C@H](CCSC)C(=O)N[C@H](CCCNC(=N)N)C(=O)N[C@H](CS)C(N)=O)C(C)C [Peptide 247, Lauryl-rsrwrdvarnfmrc-NH2] (Lauroyl-[dR][dS][dR][dW][dR][dD][dV][dA][dR][dN][dF][dM][dR][dC]-NH2)
6 |  | 2 µg/mL (≈ 1.04 µM) | 4 µg/mL (≈ 2.07 µM) | 8e ug/mL | 4 µg/mL (≈ 2.07 µM) | 8 µg/mL (≈ 4.14 µM) | 2 µg/mL (≈ 1.04 µM) | 8c ug/mL | CCCCCCCCCCCC(=O)N[C@H](CCCNC(=N)N)C(=O)N[C@H](CO)C(=O)N[C@H](CCCNC(=N)N)C(=O)N[C@H](Cc1c[nH]c2ccccc12)C(=O)N[C@H](CCCNC(=N)N)C(=O)N[C@H](CC(=O)O)C(=O)N[C@@H](C(=O)N[C@H](C)C(=O)N[C@H](CCCNC(=N)N)C(=O)N[C@H](CC(=O)O)C(=O)N[C@H](Cc1ccccc1)C(=O)N[C@H](CCSC)C(=O)N[C@H](CCCNC(=N)N)C(N)=O)C(C)C [Peptide 249, Lauryl-rsrwrdvardfmr-NH2] (Lauroyl-[dR][dS][dR][dW][dR][dD][dV][dA][dR][dD][dF][dM][dR]-NH2)
7 |  | 16 µg/mL (≈ 8.62 µM) | 64 µg/mL (≈ 34.5 µM) | 64e ug/mL | 16 µg/mL (≈ 8.62 µM) | 16 µg/mL (≈ 8.62 µM) | 2 µg/mL (≈ 1.08 µM) | 16c ug/mL | CCCCCCCC(=O)N[C@H](CCCNC(=N)N)C(=O)N[C@H](CO)C(=O)N[C@H](CCCNC(=N)N)C(=O)N[C@H](Cc1c[nH]c2ccccc12)C(=O)N[C@H](CCCNC(=N)N)C(=O)N[C@H](CC(=O)O)C(=O)N[C@@H](C(=O)N[C@H](C)C(=O)N[C@H](CCCNC(=N)N)C(=O)N[C@H](CC(N)=O)C(=O)N[C@H](Cc1ccccc1)C(=O)N[C@H](CC(C)C)C(=O)N[C@H](CCCNC(=N)N)C(N)=O)C(C)C [Peptide 252, Octyl-rsrwrdvarnflr-NH2] (Octanoyl-[dR][dS][dR][dW][dR][dD][dV][dA][dR][dN][dF][dL][dR]-NH2)
8 |  | 2 µg/mL (≈ 1.06 µM) | 8 µg/mL (≈ 4.24 µM) | 16e ug/mL | 2 µg/mL (≈ 1.06 µM) | 4 µg/mL (≈ 2.12 µM) | 1 µg/mL (≈ 0.53 µM) | 2c ug/mL | CCCCCCCCCC(=O)N[C@H](CCCNC(=N)N)C(=O)N[C@H](CO)C(=O)N[C@H](CCCNC(=N)N)C(=O)N[C@H](Cc1c[nH]c2ccccc12)C(=O)N[C@H](CCCNC(=N)N)C(=O)N[C@H](CC(=O)O)C(=O)N[C@@H](C(=O)N[C@H](C)C(=O)N[C@H](CCCNC(=N)N)C(=O)N[C@H](CC(N)=O)C(=O)N[C@H](Cc1ccccc1)C(=O)N[C@H](CC(C)C)C(=O)N[C@H](CCCNC(=N)N)C(N)=O)C(C)C [Peptide 253, Decanyl-rsrwrdvarnflr-NH2] (Decanoyl-[dR][dS][dR][dW][dR][dD][dV][dA][dR][dN][dF][dL][dR]-NH2)
